Experimental data published in patent publication US6362203B1, “4-hydroxy-4-phenylpiperidine derivatives and pharmaceuticals containing the same” (SSP Co., LTD, priority 1999, dated 2002).

Key:
opioid receptor = details: agonist activity relative to DAMGO (=1.0); guinea pig ileum longitudinal muscle sample
Method: Test 1: Action on the ileum sample excised from a guinea pig
A Hartley male guinea pig of about 500 g in weight was employed. From its ileocecum, 15 to 30 cm of the ileum was excised and a longitudinal muscle sample attached with the Auerbach's plexus was prepared. […] The agonist activity was indicated in terms of relative potency to DAMGO ([D-Ala^2, N-MePhe^4, Gly^5-ol]-enkephalin), a selective μ-opioid agonist.

| SMILES | Relative potency (opioid receptor) | melting point |
| --- | --- | --- |
| C[C@@H](NC(=O)[C@@H](N)Cc1ccc(O)cc1)C(=O)NCC(=O)N(C)[C@@H](Cc1ccccc1)C(=O)NCCO [DAMGO, [D-Ala^2, N-MePhe^4, Gly^5-ol]-enkephalin] | 1.0 |  |
| CN(C)C(=O)C(CCN1CCC(O)(c2cccc(O)c2)CC1)(c1ccccc1)c1ccccc1 |  | 169 °C |
| CCCCNC(=O)C(CCN1CCC(O)(c2ccccc2OCCO)CC1)(c1ccccc1)c1ccccc1 |  | 130 to 131 °C |
| CN(C)C(=O)C(CCN1CCC(O)(c2ccc(O)cc2)CC1)(c1ccccc1)c1ccccc1 |  | 155 °C |
| CN(C)C(=O)C(CCN1CCC(O)(c2ccccc2OCCCCCCO)CC1)(c1ccccc1)c1ccccc1.Cl |  | 110 °C |
